Reference: US12643867B2, “Compositions and uses thereof” (University of Virginia Patent Foundation, priority 2017, dated 2026)

Legend:
Format in all cases: binding
[1] = target: T1, DGKA (Diacylglycerol kinase alpha) (Rattus norvegicus, UniProt P51556); test: SILAC LC-MS ATP acyl phosphate probe competition, recombinant DGK-HEK293T lysates
T1 construct: expressed in transfected cells; host or cells: HEK293T (SILAC HEK293T for LC-MS)
Experimental: All other vectors were gifted to Dr. Kevin Lynch (University of Virginia, School of Medicine) by Dr. Kaoru Goto (Yamagata University, School of Medicine) and Dr. Fumio Sakane (Chiba University) and were kindly shared with us: pcDNA3-FLAG-DGKA (rat), pCMV-Tag2B-FLAG-DGKQ (human), pcDNA3-DGKE-3×Flag (human), and pCMV-SPORT6-HA-DGKZ (human). HEK293T cells were plated at a concentration of 400,000 cells in complete DMEM and grown to 50-60% confluency. A polyethyleneimine (PEI) stock solution was prepared (1 mg/mL, pH 7.4) and filter sterilized. Serum-free DMEM (600 μL) was mixed gently with 2.6 μg DNA and 20 μL of sterile PEI (1 mg/mL, pH 7.4) in a sterile microfuge tube. Mixtures were incubated for 30 min at 25° C. The mixture was then added drop-wise to each 10 cm^2 plate, rocked back and forth to mix, and placed back in the incubator. Cell pellets were harvested after two full days of growth, snap-frozen in liquid N2, and stored at −80° C. until use. Recombinant proteins were produced by transient transfection in SILAC HEK293T cells using the procedure described above, except that cells were plated at a concentration of 1×10^6 cells per 10 cm^2 plate and grown to ˜70% confluency prior to introducing transfection mixture.
Proteomes were diluted to 2 mg/ml in kinase buffer. The light and heavy proteomes (0.5 mg, 250 μL total reaction volume) were pre-treated with vehicle or compound, respectively (5 μL, DMSO (light) or 50× stock in DMSO (heavy)), mixed gently, and incubated at 25° C. for 30 min. […] After incubation, matched light and heavy proteomes were transferred and mixed in a 1:1 ratio in a two-dram vial containing 4:1:3 MeOH/CHCl3/H2O (2 mL MeOH, 500 AL CHCl3, 1.5 mL H2O) for extraction of proteins to remove excess probe, quickly vortexed, and centrifuged at 1,400×g for 3 min to pellet protein. Organic and aqueous layers were removed using a Pasteur pipette, and the protein pellet was transferred to a screw-top tube in 600 μL MeOH. A second extraction was performed by adding CHCl3 (150 μL) and H2O (600 μL) to each sample, vortexed, and centrifuged at 1,400×g for 3 min to pellet protein. Organic and aqueous layers were removed by pipetting. MeOH added to pellet (600 μL) and pellets were re-suspended by sonication (3×1 sec pulse, 20% amplitude) for a final extraction. Samples were then centrifuged at 17,000×g for 5 min to pellet protein and MeOH was removed by pipetting. […] To desalt the samples, each was transferred to a two-dram glass vial, and to the vial 4:1:2 MeOH/CHCl3/H2O (2 mL MeOH, 500 AL CHCl3, 1 mL H2O) was added. The vials were vortexed quickly, spun at 1.400×g for 3 min to pellet protein, and aqueous and organic layers were removed using a Pasteur pipette. The resulting protein pellet was transferred to a screw-top tube in 600 μL MeOH, and then CHCl3 (150 μL) and HO (600 μL) were added to extract protein a second time. The samples were vortexed quickly, centrifuged at 1,400×g to pellet protein, and the aqueous and organic layers were removed by pipetting. Resulting protein pellet was suspended in MeOH (600 μL) via sonication (3×1 sec pulse, 20% amplitude), centrifuged at 17,000×g for 5 min to pellet protein, and MeOH removed by pipetting. Protein pellets were then re-suspended in 25 mM ammonium bicarbonate (500 μL) and digested with 7.5 μg Trypsin/Lys-C(Promega, 15 μL, 0.5 μg/μL) for 3 h at 37° C. Avidin-agarose beads (Thermo Scientific Pierce, 100 AL aliquot per sample) were washed three times by adding 10 mL DPBS, centrifuged at 1,400×g for 1 min, and decanting. This wash step was repeated for a total of 3 times. Digested protein samples were mixed with washed avidin beads (100 μL) and brought to a volume of 5.5 mL with DPBS in a 15 mL conical and rotated for 1 h to enrich samples for the covalent desthiobiotin modification. The beads were washed with 25 mM ammonium bicarbonate (3× with 10 mL, centrifuge at 1,400×g for 3 min, decant) and then H2O (3× with 10 mL, centrifuge at 1,400×g for 3 min, decant).

[2] = target: T2, recombinant DGKα (Rattus norvegicus, UniProt P51556); test: Gel-based ATP acyl phosphate chemical proteomic assay; settings: compounds 100 μM (ATP 1 mM; RF001 at indicated concentrations), 30 min; probe 10 μM
T2 construct: expressed in transfected cells; host or cells: HEK293T (SILAC HEK293T for LC-MS)
Experimental: Cell pellets were resuspended in kinase buffer (Dulbecco's PBS (DPBS, Hyclone), 20 mM MgCl2, EDTA-free protease inhibitors (Pierce)) and then lysed by sonication (3×1 sec pulse, 20% amplitude). The cell lysates were then subjected to centrifugation (100,000×g, 45 min at 4° C.) to isolate the cytosolic fraction in the supernatant and the membrane fraction as a pellet. The membrane pellet was resuspended in kinase buffer by sonication. […] The only exception was experiments involving DGKE; recombinant DGKE protein was most prominently expressed in the membrane fraction and so this fraction was utilized to study DGKE enzyme (see FIG. 8). Protein concentrations were measured using the Bio-Rad DC protein assay. Samples were stored at −80° C. until use.
Proteome concentration was adjusted to 2 mg/mL in kinase buffer. Proteomes were first pre-treated with compound (0.6 μL, 50× stock in DMSO) mixed with gentle flicking, and incubated for 30 min at 25° C. in a microfuge tube (30 μL reaction volume). […] Reactions were then quenched with 10 AL of 4×SDS-PAGE loading buffer. Protein samples (15 μL) were loaded onto 4-20% TGX Stain-Free Protein Midi Gel and resolved by SDS-PAGE at 150V for 55 min. Proteins were then transferred to a nitrocellulose blot by Bio-Rad Trans-Blot Turbo Transfer System (25V. 10 min) to enhance sensitivity. The nitrocellulose blot was then incubated in blocking solution (30 mL, 3% BSA in TBS-T) for 1 h at 25° C. with gentle shaking. The blot was then transferred immediately to antibody solution (30 mL, 5% BSA in ddH2O with 0.1% Tween20 and 1:3000 Streptavidin DyLight 550) and incubated for 2 h at 25° C. with gentle shaking. The blot was then rinsed 5 times for 5 min in TBS-T. and then transferred into ddH2O. The blot was then imaged by in-blot fluorescence scanning on a ChemiDoc MP Imaging System. Fluorescence intensity signals were normalized to total lane protein using the Bio-rad Stain Free imaging (Posch et al., 2013).
The percentage of enzyme activity remaining was determined by comparing integrated band intensities or luminescence of inhibitor—with DMSO-treated samples for gel-based chemical proteomic or ADP-glo assays, respectively. For both chemical proteomic and ADP-glo methods, nonlinear regression analysis was used to determine the IC50 values from a dose-response curve generated using GraphPad Prism. Data are shown as mean±s.e.m. Determination of significance was performed by one-way ANOVA. All statistical analyses were performed using GraphPad Prism.

[3] = target: T3, hDGKa C1 domain cysteines (Homo sapiens, UniProt P23743); test: JWB003 labeling competition in vitro
T3 construct: expressed in transfected cells; host or cells: HEK293T
Experimental: • 1. HEK293T cells were harvested in cold PBS. • a. Cells were transferred to Eppendorf tube. • 2. Cells were lysed via tip sonicator. • 3. Cells were fractionated into membrane and soluble fraction. • a. 100,000×G for 45 minutes at 4 degree. • b. Supernatant was separated from cell pellet. • 4. Dilute proteomes to 1 mg/mL in PBS and aliquot appropriate reaction volume (49 μL for probe only; 48 μL for competition+probe) • 5. Cells were treated with 50× inhibitor. • a. Incubated for 1Hr at 37 degree. • 6. Cells were treated with 50× Probe (JWB003). • a. Incubated for 1Hr at 37 degree. • 7. Add 6 μL of master mix to each alkyne probe-labeled sample. • a. 1 μL of 1.25 mM Rh-N3 • b. 1 μL of fresh 50 mM TCEP • c. 3 μL of 1.7 mM TBTA stock • d. 1 μL of 50 mM CuSO4 • 8. Vortex samples. • 9. Incubate at room temperature for 1 hr • 10. Quench with 17 μL of 4×SDS-PAGE loading buffer+βME and vortex tubes. • 11. Analyze 30 μL samples by SDS-PAGE immediately. [B] Labeling HEK293T Cells to Determine Target Proteins of JWB003 in Live Cells (In Situ) • 1. Complete media was removed from HEK293T cells and replaced with serum free media containing JWB003 at the appropriate final concentration • a. Cells were placed in incubator for appropriate time at 37 degree 5% CO2 • 2. Cells were washed • a. 2× warm PBS • b. 2× cold PBS • c. Harvest cells in cold PBS • 3. Cells were transferred to Eppendorf tube • 4. Cells were lysed via tip sonicator • 5. Cells were fractionated into membrane and soluble fraction • a. 100,000×G for 45 minutes at 4 degrees • b. Supernatant was separated from cell pellet. • 6. Dilute proteomes to 1 mg/mL and aliquot appropriate reaction volume (50 μL) • 7. Add 6 μL of master mix to each alkyne probe-labeled sample. • a. 1 μL of 1.25 mM Rh-N3 • b. 1 μL of fresh 50 mM TCEP • c. 3 μL of 1.7 mM TBTA stock • d. 1 μL of 50 mM CuSO4 • 8. Vortex samples. • 9. Incubate at room temperature for 1 hr. • 10. Quench with 17 μL of 4×SDS-PAGE loading buffer+βME and vortex tubes. • 11. Analyze 30 μL samples by SDS-PAGE immediately. [C] […]

T3 sequence (P23743 whole entry, the tested form may be a part): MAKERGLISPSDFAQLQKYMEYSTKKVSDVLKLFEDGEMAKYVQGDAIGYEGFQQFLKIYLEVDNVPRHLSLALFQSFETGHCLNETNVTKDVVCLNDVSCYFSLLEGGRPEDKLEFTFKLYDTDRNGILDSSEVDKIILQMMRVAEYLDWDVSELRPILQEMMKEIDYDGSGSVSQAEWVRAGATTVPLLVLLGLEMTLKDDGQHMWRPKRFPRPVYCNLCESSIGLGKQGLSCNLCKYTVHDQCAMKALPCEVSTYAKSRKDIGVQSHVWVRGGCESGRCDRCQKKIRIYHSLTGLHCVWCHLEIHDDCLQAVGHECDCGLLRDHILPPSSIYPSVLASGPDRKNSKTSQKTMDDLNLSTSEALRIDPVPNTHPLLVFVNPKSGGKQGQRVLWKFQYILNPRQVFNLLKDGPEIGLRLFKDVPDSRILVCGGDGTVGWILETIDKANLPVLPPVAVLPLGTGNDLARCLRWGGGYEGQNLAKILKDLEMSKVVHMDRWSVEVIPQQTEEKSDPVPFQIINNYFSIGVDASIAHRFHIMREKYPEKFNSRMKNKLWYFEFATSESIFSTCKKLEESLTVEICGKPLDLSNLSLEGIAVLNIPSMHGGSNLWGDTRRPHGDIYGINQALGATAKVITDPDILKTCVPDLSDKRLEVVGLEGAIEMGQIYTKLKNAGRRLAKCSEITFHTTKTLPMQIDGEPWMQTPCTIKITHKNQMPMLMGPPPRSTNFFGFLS
T1 sequence (P51556 whole entry): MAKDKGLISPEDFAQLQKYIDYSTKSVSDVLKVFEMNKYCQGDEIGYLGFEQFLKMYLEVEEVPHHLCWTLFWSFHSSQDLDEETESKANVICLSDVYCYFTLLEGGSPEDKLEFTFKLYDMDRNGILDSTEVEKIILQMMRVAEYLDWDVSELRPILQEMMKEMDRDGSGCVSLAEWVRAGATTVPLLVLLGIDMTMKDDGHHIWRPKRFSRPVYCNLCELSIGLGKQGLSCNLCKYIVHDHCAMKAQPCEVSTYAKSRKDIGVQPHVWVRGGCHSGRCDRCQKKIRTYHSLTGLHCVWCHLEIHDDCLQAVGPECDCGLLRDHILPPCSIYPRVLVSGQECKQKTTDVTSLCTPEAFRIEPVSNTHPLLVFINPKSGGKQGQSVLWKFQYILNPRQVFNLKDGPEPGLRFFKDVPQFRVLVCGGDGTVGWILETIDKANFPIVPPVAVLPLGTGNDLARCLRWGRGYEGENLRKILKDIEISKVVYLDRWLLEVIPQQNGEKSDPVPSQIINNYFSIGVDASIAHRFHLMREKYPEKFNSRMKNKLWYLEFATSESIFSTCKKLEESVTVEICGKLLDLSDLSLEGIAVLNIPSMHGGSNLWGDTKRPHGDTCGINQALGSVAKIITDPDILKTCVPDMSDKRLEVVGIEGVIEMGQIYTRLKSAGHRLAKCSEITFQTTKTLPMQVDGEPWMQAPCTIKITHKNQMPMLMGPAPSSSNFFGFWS
T2 sequence (P51556 whole entry): as above

| competition at probe-modified peptides from DAGKc and DAGKa subdomains of DGKα ([1]; ATP 1 mM) [%] | inhibition at 1000 µM ([1]; read-out: inhibition of probe labeling at DGKα C1 site (K237)) [%] | Compound | blockade of DGKα ATP probe labeling [2] | inhibition of JWB003 probe labeling of hDGKa [3] |
| --- | --- | --- | --- | --- |
| ~94 | ~58 | Nc1ncnc2c1ncn2[C@@H]1O[C@H](COP(=O)(O)OP(=O)(O)OP(=O)(O)O)[C@@H](O)[C@H]1O [ATP, adenosine triphosphate] | global reductions in fluorescent protein signals | – |
| – | – | CCCCCCCCCCCCCC(=O)O[C@@H]1[C@@H](C)[C@@]2(O)[C@@H](C=C(CO)C[C@]3(O)C(=O)C(C)=C[C@@H]23)[C@@H]2C(C)(C)[C@]12OC(C)=O [PMA] | – | Probe labeling is inhibited |
| – | – | NC(=O)CI [iodoacetamide] | – | labeling is inhibited |
